Eight compounds from PubChem BioAssay (NCI) can be followed below.

Some test systems named below: UO-31 renal; M14 melanoma; HOP-62 NSCLC; T-47D breast; CAKI-1 renal; BT-549 breast; K-562 leukemia; CCRF-CEM leukemia; ACHN renal; SF-539 CNS.
Holding throughout (test): growth of human tumour cells (NCI), 48 h

Several values for one entry are separate records, joined by “and”; a condition that tells them apart may be missing. Equal entries are not always repeated.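 48-hour exposure; five concentrations; linearly interpolated endpoints. Here, GI50 denotes the concentration required for 50% inhibition of growth. At the TGI there is no net growth.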

Regarding `NC(=O)c1sc(-n2cnc3ccccc32)cc1OCc1ccccc1Br`, the GI50 in the assay with UO-31 renal was 15.4 µM; in the assay with M14 melanoma it was 5.71 µM; in the assay on HOP-62 NSCLC it was 3.67 µM; with T-47D breast, 23.1 µM; with CAKI-1 renal, 14.2 µM; in the assay with BT-549 breast it was 9.68 µM. The GI50 was 6.71 µM in the assay with K-562 leukemia, 1.34 µM in the assay with CCRF-CEM leukemia, 15.8 µM in the assay on ACHN renal and 5.47 µM in the assay with SF-539 CNS. Moreover, the TGI with UO-31 renal, with M14 melanoma, in the assay on HOP-62 NSCLC, in the assay on T-47D breast, with CAKI-1 renal and with BT-549 breast was above 25 µM each time. Further, the TGI in the assay on K-562 leukemia, in the assay on CCRF-CEM leukemia, in the assay on ACHN renal and with SF-539 CNS was above 25 µM throughout.
For `O=C(Nc1ccccc1)NS(=O)(=O)c1ccc(-n2nc3c(c2-c2cccs2)Cc2ccccc2-3)cc1`, the GI50 in the assay on UO-31 renal is 32.3 µM; in the assay with M14 melanoma, 25 µM; with HOP-62 NSCLC, 18.1 µM; with T-47D breast, 37.9 µM; in the assay with CAKI-1 renal, 11.1 µM; in the assay on BT-549 breast, 24.1 µM. Also, the GI50 in the assay on K-562 leukemia is 14 µM; in the assay with CCRF-CEM leukemia it was 13.6 µM; with ACHN renal it was 17.6 µM; in the assay with SF-539 CNS, 25 µM. The TGI in the assay on UO-31 renal is above 100 µM; with M14 melanoma it was 47 µM; with HOP-62 NSCLC, 47 µM; in the assay on T-47D breast it was above 100 µM; in the assay with CAKI-1 renal, 44.1 µM; in the assay on BT-549 breast, 67.9 µM. For the same compound, the TGI was 76.2 µM in the assay with K-562 leukemia, above 100 µM in the assay with CCRF-CEM leukemia, 38 µM in the assay on ACHN renal and 55.5 µM with SF-539 CNS.
Consider `c1ccc2cc(-c3cc(-c4cc(-c5ccc6ccccc6c5)on4)no3)ccc2c1`, for which the TGI in the assay on UO-31 renal, in the assay on M14 melanoma, in the assay on HOP-62 NSCLC, in the assay on T-47D breast, with CAKI-1 renal and in the assay with BT-549 breast was above 100 µM in each case. Further, the TGI in the assay on K-562 leukemia, with CCRF-CEM leukemia, with ACHN renal and in the assay on SF-539 CNS was above 100 µM each time.
Turning to `CC[C@@]1(O)C[C@H](OC2CC(N(C)C)C(O)C(C)O2)c2c(O)c3c(c(O)c2[C@H]1OC1CC(N(C)C)C(O)C(C)O1)C(=O)c1cccc(O)c1C3=O` (stereo partly specified), the GI50 in the assay on UO-31 renal, in the assay on M14 melanoma, in the assay with HOP-62 NSCLC, in the assay with T-47D breast, in the assay on BT-549 breast and in the assay with K-562 leukemia was below 0.01 µM each time. Further, the GI50 in the assay on CCRF-CEM leukemia was below 0.01 µM; in the assay on ACHN renal it was 0.03 µM and < 0.01 µM; in the assay with SF-539 CNS, below 0.01 µM. In addition, the TGI in the assay with HOP-62 NSCLC is 0.192 µM; in the assay on T-47D breast it was 0.0379 µM; in the assay on CAKI-1 renal it was 0.0545 µM; with BT-549 breast, 0.293 µM and 0.102 µM; in the assay on CCRF-CEM leukemia it was 0.204 µM; in the assay on ACHN renal, below 0.01 µM. Besides, the TGI in the assay on SF-539 CNS is 0.212 µM and 0.183 µM.
As for `COc1ccc(-c2nc3sccn3c2/C(N)=N/C(=N)N)cc1OC`, the GI50 is 7.37 µM in the assay on UO-31 renal; 29.4 µM in the assay on M14 melanoma; 24.6 µM with HOP-62 NSCLC; 29.1 µM in the assay with T-47D breast; 87.7 µM in the assay on CAKI-1 renal; 22.8 µM in the assay on BT-549 breast. Moreover, the GI50 was 27.6 µM with K-562 leukemia, 38.4 µM with CCRF-CEM leukemia, above 100 µM with ACHN renal and 25.7 µM in the assay with SF-539 CNS. Moreover, the TGI is 40.2 µM in the assay with UO-31 renal; 79.5 µM with M14 melanoma; 58.3 µM in the assay with HOP-62 NSCLC; above 100 µM with T-47D breast; above 100 µM in the assay with CAKI-1 renal; 43.3 µM in the assay with BT-549 breast. In addition, the TGI in the assay on K-562 leukemia was above 100 µM; in the assay on CCRF-CEM leukemia, above 100 µM; in the assay with ACHN renal it was above 100 µM; with SF-539 CNS, 66 µM.
With `COC1CCC(N2C(=O)CNc3ncc(-c4ccc(C(C)(C)O)nc4)nc32)CC1` (stereo unspecified), the GI50 in the assay on UO-31 renal was 0.199 µM and 0.0768 µM; in the assay with M14 melanoma, 0.614 µM and 0.134 µM; in the assay with HOP-62 NSCLC it was 1.92 µM and 0.437 µM; in the assay on T-47D breast, 0.159 µM and 0.0258 µM; with CAKI-1 renal it was 0.412 µM; with BT-549 breast it was 0.329 µM and 0.0572 µM. Further, the GI50 in the assay with K-562 leukemia was 2.28 µM and 0.77 µM; with CCRF-CEM leukemia it was 1.41 µM and 0.738 µM; with ACHN renal, 1.07 µM and 0.205 µM; in the assay on SF-539 CNS it was 1.42 µM and 0.335 µM. The TGI is 3.08 µM and 10.5 µM in the assay on UO-31 renal; > 6.95 µM and 11.8 µM in the assay on M14 melanoma; > 10 µM and 14.5 µM with HOP-62 NSCLC; 0.786 µM and 0.306 µM in the assay on T-47D breast; above 6.75 µM in the assay with CAKI-1 renal; 3.6 µM and 0.991 µM with BT-549 breast. Also, the TGI in the assay with K-562 leukemia is above 100 µM; with CCRF-CEM leukemia, above 100 µM; in the assay with ACHN renal, above 100 µM; in the assay with SF-539 CNS it was 6.95 µM and 4.7 µM.
As for `O=C(Nc1ccc(Cl)c(Cl)c1)Nc1ccc(Cl)c(Cl)c1`, the GI50 in the assay on UO-31 renal was 2.25 µM and 2.74 µM; in the assay with M14 melanoma, 3.1 µM; in the assay on HOP-62 NSCLC, 3.02 µM and 5.73 µM; with T-47D breast, 2.01 µM and 4.22 µM; with CAKI-1 renal, 2.6 µM and 1.94 µM; with BT-549 breast, 1.72 µM and 4.01 µM. Also, the GI50 in the assay with K-562 leukemia was 3.39 µM and 1.97 µM; in the assay with CCRF-CEM leukemia, 3.36 µM and 1.97 µM; in the assay on ACHN renal, 2.34 µM and 3.28 µM; in the assay with SF-539 CNS it was 2.63 µM and 3.64 µM. Besides, the TGI in the assay with UO-31 renal was 7.78 µM and 8.91 µM; with M14 melanoma, 9.59 µM; in the assay with HOP-62 NSCLC, 11.4 µM and 31.2 µM; in the assay on T-47D breast, 8.12 µM and 49 µM; in the assay with CAKI-1 renal, 9.96 µM and 4.59 µM; in the assay on BT-549 breast, 5.96 µM and 31.6 µM. The TGI in the assay with K-562 leukemia is 19.8 µM and 9.9 µM; in the assay on CCRF-CEM leukemia, 14.1 µM and 6.47 µM; with ACHN renal, 6.49 µM and 10.5 µM; in the assay on SF-539 CNS, 8.15 µM and 14.7 µM.
As to `NC(=O)c1cccc2cn(-c3ccc([C@@H]4CCCNC4)cc3)nc12`, the GI50 in the assay with UO-31 renal is 11.3 µM; with M14 melanoma it was 10.7 µM; in the assay with HOP-62 NSCLC it was 8.44 µM; with T-47D breast it was 12.9 µM; in the assay on CAKI-1 renal, 5.77 µM; in the assay on BT-549 breast, 18.8 µM. The GI50 with K-562 leukemia is 14.1 µM; in the assay with CCRF-CEM leukemia it was 5.54 µM; in the assay on ACHN renal, 12.4 µM; in the assay on SF-539 CNS, 6.72 µM. The TGI is 25.2 µM in the assay on UO-31 renal; 26.3 µM in the assay with M14 melanoma; 27.8 µM in the assay on HOP-62 NSCLC; 35.5 µM in the assay with T-47D breast; 20.2 µM in the assay with CAKI-1 renal; 40.9 µM in the assay on BT-549 breast. The TGI amounted to 36.8 µM in the assay with K-562 leukemia, 97.7 µM with CCRF-CEM leukemia, 25.9 µM in the assay on ACHN renal and 20.4 µM in the assay with SF-539 CNS.
